Results taken from publication PMC12029836, “Phytotoxicity, Cytotoxicity, and Antimicrobial Activity of Triethanolammonium Amino Acids Salts” (Molecules, 2025).
“And” between values parts separate entries of the source, which are not always exact repeats. Equal entries are not always repeated. Where two headings read alike, the source gives them in different places.

Tests used:
[1] = tested on: cress; parameters: method as in doi:10.1134/S0036023620090089; conditions: cited from earlier work
[2] = tested on: CaCo-2; parameters: method as in doi:10.1039/C4TX00079J; conditions: CaCo-2 ref 39; cited from earlier work
[3] = tested on: NIH/3T3; parameters: method as in doi:10.1039/C4TX00079J; conditions: NIH/3T3 ref 39; cited from earlier work
[4] = parameters: method as in PMID 28665154; conditions: cited from earlier work
[5] = tested on: 3T3 cell (mouse embryonic fibroblasts); conditions: cited from earlier work
[6] = tested on: cress; parameters: method as in PMID 19052732; conditions: cress seed, highest concentration of 1000 mg L^−1 ref 17; cited from earlier work
[7] = tested on: L929 fibroblasts; experiment: Mammalian cell cytotoxicity screening, resazurin viability; assay type: cell-based, mouse; conditions: 24h exposure
[8] = tested on: Lepidium sativum L. roots; conditions: 24 h incubation, mean(±SD), n = 3
[9] = tested on: C. albicans ATCC 10231; experiment: Antimicrobial activity, broth microdilution MIC/MBC; assay type: cell-based, Candida albicans; conditions: C. albicans ATCC 10231, 24 h at 37 °C, at least 90% growth inhibition; nd—not detected
[10] = tested on: Lepidium sativum L. seeds; conditions: 24 h incubation, mean(±SD), n = 3
[11] = tested on: S. aureus ATCC 6538; experiment: Antimicrobial activity, broth microdilution MIC/MBC; assay type: cell-based, Staphylococcus aureus; conditions: S. aureus ATCC 6538, 24 h at 37 °C, at least 90% growth inhibition; nd—not detected
[12] = tested on: E. coli ATCC 8739; experiment: as above; assay type: cell-based, Escherichia coli; conditions: nd—not detected
[13] = tested on: E. coli; parameters: method as in doi:10.3139/113.110524; conditions: E. coli ref 49; cited from earlier work
[14] = 0.01% (w/w) compound in the medium
[15] = 0.03% (w/w) compound in the medium
[16] = 0.05% (w/w) compound in the medium
[17] = 0.30% (w/w) compound in the medium
[18] = 0.50% (w/w) compound in the medium
[19] = 1.00% (w/w) compound in the medium
[20] = 2.00% (w/w) compound in the medium
[21] = 4.00% (w/w) compound in the medium

In the case of `O=C(O)c1ccccc1O.OCCN(CCO)CCO` [TEA salicylate], the “effect on root and shoot length” value ([1]; 0.03 mg L^−1 ref 12) is listed as “significant inhibition effect”.

For `O=C(O)C=Cc1ccccc1.OCCN(CCO)CCO` [TEA salt of cinnamic acid], the “effect on cress seed germination and root growth” value ([1]; 0.003 and 0.03 mg L^−1 ref 12) is listed as “most visible stimulation”.

For `CCCCn1cc[n+](C)c1` [[BMIM][(L)-Lac]], the IC50 [2] is listed as 19.2 mM and the IC50 [3] is listed as 33.6 mM.

For `CCCCn1cc[n+](C)c1.C[C@H](N)C(=O)[O-]` [[BMIM][Ala]], the IC50 [2] is listed as 19.3 mM and the IC50 [3] is listed as 30.2 mM.

In the case of `CCCCn1cc[n+](C)c1` [[BMIM][BF4]], the IC50 [2] is given as 11.2 mM and the IC50 [3] is given as 11.3 mM.

In the case of `CCCCn1cc[n+](C)c1` [[BMIM][PF6]], the IC50 [2] is given as 11.5 mM.

For `C[N+](C)(C)CCO.N[C@@H](CCC(=O)O)C(=O)[O-]` [[Cho][Glu]], the IC50 [4] is given as 0.43 % (v/v).

In the case of `C[N+](C)(C)CCO.NCC(=O)[O-]` [[Cho][Gly]], the Cell viability [5] is given as “over 90%”.

In the case of `NCC(=O)O` [[Cho][Gly]], the IC50 ([5]; 3T3 cells, 48 h, printed also as (1%) ref 34) is given as ~55 mM.

For `C[N+](C)(C)CCO.NC(Cc1ccccc1)C(=O)[O-]` (stereo not drawn) [[Cho][Phe]], the IC50 [4] is listed as 0.42 % (v/v).

For `CCn1cc[n+](C)c1.[Cl-]` [[EMIM][Cl]], the decrease in germination [6] is given as 85%.

For `CCCCCCn1cc[n+](C)c1.[Cl-]` [[HMIM][Cl]], the decrease in germination [6] is given as 100%.

With `NC(CO)C(=O)O.OCCN(CCO)CCO` [[TEA][Ser]] the ED20 [7] was 0.26±0.03%, the ED50 [7] was 0.55±0.04% and the ED80 [7] was 0.98±0.11%. For the same compound, the “Inhibition of the root growth in pregerminated Lepidium sativum seeds (IRG, %)” value (shortened to “Inhibition of the root growth … (IRG, %)”) [8, 14] was 0.0(±0.0) % and 0%, the “Inhibition of the root growth … (IRG, %)” value [8, 15] was 0.0(±0.0) % and 0% and the “Inhibition of the root growth … (IRG, %)” value [8, 16] was 0.0(±0.0) % and 0%. The “Inhibition of the root growth … (IRG, %)” value [8, 17] was 14.6%, the “Inhibition of the root growth … (IRG, %)” value [8, 18] was 25.3% and the “Inhibition of the root growth … (IRG, %)” value [8, 19] was 70.2(±0.7) %. For the same compound, the “Inhibition of the root growth … (IRG, %)” value [8, 20] was 77.8(±0.6) %, the “Inhibition of the root growth … (IRG, %)” value ([8]; 3.00% (w/w) compound in the medium) was 79.5(±0.6) % and the “Inhibition of the root growth … (IRG, %)” value [8, 21] was 81.3(±0.5) %. For the same compound, the “Inhibition of the root growth … (IRG, %)” value ([8]; 5.00% (w/w) compound in the medium) was 91.2(±0.4) %, the “MIC (%)” value [9] was 3.75% and the “Inhibition of the Lepidium sativum seeds germination (ISG, %)” value (“Inhibition … (ISG, %)” for short) [10, 14] was 0.0(±0.0) %. For the same compound, the “Inhibition … (ISG, %)” value [10, 15] was 0.0(±0.0) %, the “Inhibition … (ISG, %)” value [10, 16] was 0.0(±0.0) % and the “Inhibition … (ISG, %)” value ([10]; 0.10% (w/w) compound in the medium) was 2.8(±1.7) %. The “Inhibition … (ISG, %)” value [10, 17] was 5.7(±1.3) %, the “Inhibition … (ISG, %)” value [10, 18] was 6.6(±0.9) % and the “Inhibition … (ISG, %)” value [10, 19] was 7.5(±1.7) %. The “Inhibition … (ISG, %)” value [10, 20] was 17.0(±0.5) %, the “Inhibition … (ISG, %)” value [10, 21] was 34.0(±2.6) % and the “MIC (%)” value [11] was 7.50%. For the same compound, the “MIC (%)” value ([12]; E. coli ATCC 8739, 24 h at 37 °C, at least 90% growth inhibition) was 7.50% and the “MBC (%)” value ([12]; E. coli ATCC 8739) was 7.50%.

In the case of benzalkonium chloride, the MIC [13] is listed as 15 mg/L.
